Columns and labels:
blackgrass = experiment: Test B pre/postemergence blackgrass; type: in vivo, Alopecurus myosuroides
Summary of the method: (§1)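 Response is a visual 0-to-10 score relative to untreated plants, where 0 means no effect and 10 means complete control, taken twelve to sixteen days after application. Treatments went onto soil at planting and onto foliage of 1- to 4-leaf plants, using a surfactant-containing non-phytotoxic solvent.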

surinam grass = experiment: Test B pre/postemergence surinam grass; type: in vivo, Brachiaria decumbens
Summary of the method: as §1

cocklebur = experiment: Test B pre/postemergence cocklebur; type: in vivo, Xanthium strumarium
Summary of the method: as §1

corn = experiment: Test B pre/postemergence corn; type: in vivo, Zea mays
Summary of the method: as §1

crabgrass = experiment: Test B pre/postemergence crabgrass; type: in vivo, Digitaria sanguinalis
Summary of the method: as §1

giant foxtail = experiment: Test B pre/postemergence giant foxtail; type: in vivo, Setaria faberii
Summary of the method: as §1

morningglory = experiment: Test B pre/postemergence morningglory; type: in vivo, Ipomoea hederacea
Summary of the method: as §1

pigweed = experiment: Test B pre/postemergence pigweed; type: in vivo, Amaranthus retroflexus
Summary of the method: as §1

rape = experiment: Test B pre/postemergence rape; type: in vivo, Brassica napus
Summary of the method: as §1

sugar beet = experiment: Test B pre/postemergence sugar beet; type: in vivo, Beta vulgaris
Summary of the method: as §1

velvetleaf = experiment: Test B pre/postemergence velvetleaf; type: in vivo, Abutilon theophrasti
Summary of the method: as §1

wheat = experiment: Test B pre/postemergence wheat; type: in vivo, Triticum aestivum
Summary of the method: as §1

purple nutsedge = experiment: Test B pre/postemergence purple nutsedge; type: in vivo, Cyperus rotundus
Summary of the method: as §1

rice = experiment: Test B flood test rice; type: in vivo, Oryza sativa
Summary of the method: (§2)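 Read-out is a visual response score from 0 (no effect) to 10 (complete control), assigned by comparison with untreated controls. Treatment was applied at the 2-leaf stage, and plants stayed in the greenhouse for twelve to sixteen days before scoring.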

smallflower flatsedge = experiment: Test B flood test smallflower flatsedge; type: in vivo, Cyperus difformis
Summary of the method: as §2

duck salad = experiment: Test B flood test duck salad; type: in vivo, Heteranthera limosa
Summary of the method: as §2

[1] = Preemergence, Rate 62 g/ha, scale of 0 to 10 where 0 is no effect and 10 is complete control
[2] = Preemergence, Rate 125 g/ha, 0 is no effect, 10 is complete control
[3] = Preemergence, Rate 250 g/ha, scale 0 to 10, 0 is no effect, 10 is complete control
[4] = Preemergence, Rate 500 g/ha, scale of 0 to 10 where 0 is no effect and 10 is complete control
[5] = Rate 62 g/ha, Postemergence, scale of 0 to 10 where 0 is no effect and 10 is complete control
[6] = Rate 125 g/ha, Postemergence, scale 0 to 10
[7] = Rate 500 g/ha, Postemergence, scale 0 to 10
[8] = Rate 62 g/ha, headed Pre-emergence (flood test species), scale 0 to 10 (0 no effect, 10 complete control)
[9] = Rate 125 g/ha, Pre-emergence, flood test species, scale 0 to 10 where 0 is no effect and 10 is complete control
[10] = Rate 250 g/ha, Pre-emergence, flood-test species, scale 0 to 10, 0 is no effect, 10 is complete control
[11] = Rate 500 g/ha, headed Pre-emergence (flood test species), scale 0 to 10 (0 no effect, 10 complete control)

Cc1nc(C)c(-n2c(=O)on(C(=O)N(c3ccc(F)cc3)C(C)C)c2=O)s1 [Compound 198]
3: Plant response rating, Giant foxtail (giant foxtail; [4]) | Morningglory plant response rating (morningglory; [7])
0: Blackgrass plant response rating (blackgrass; [1]) | Blackgrass plant response rating (0 to 10 scale) (blackgrass; [2]) | Blackgrass plant response rating (blackgrass; [3]) | Plant response rating, Blackgrass (blackgrass; [4]) | Blackgrass plant response rating (blackgrass; [5]) | Blackgrass plant response rating (blackgrass; [6]) | Plant response rating (0 to 10; 0 is no effect, 10 is complete control), Blackgrass (blackgrass; Rate 250 g/ha, Postemergence) | Blackgrass plant response rating (blackgrass; [7]) | B. signalgrass plant response rating (surinam grass; [1]) | B. signalgrass plant response rating (0 to 10 scale) (surinam grass; [2]) | B. signalgrass plant response rating (surinam grass; [3]) | Plant response rating, B. signalgrass (surinam grass; [4]) | B. signalgrass plant response rating (surinam grass; [5]) | B. signalgrass plant response rating (surinam grass; Rate 125 g/ha, Postemergence, scale 0 (no effect) to 10 (complete control)) | Plant response rating, B. signalgrass (surinam grass; Rate 250 g/ha, Postemergence, scale 0 to 10, 0 is no effect, 10 is complete control) | B. signalgrass plant response rating (surinam grass; Rate 500 g/ha, Postemergence, scale 0 to 10, 0 no effect, 10 complete control) | Cocklebur plant response rating (cocklebur; [1]) | Cocklebur plant response rating (0 to 10 scale) (cocklebur; [2]) | Cocklebur plant response rating (cocklebur; [3]) | Plant response rating, Cocklebur (cocklebur; [4]) | Cocklebur plant response rating (cocklebur; [5]) | Cocklebur plant response rating (cocklebur; [6]) | Plant response rating (0 to 10; 0 is no effect, 10 is complete control), Cocklebur (cocklebur; Rate 250 g/ha, Postemergence) | Cocklebur plant response rating (cocklebur; [7]) | Corn plant response rating (corn; [1]) | Corn plant response rating (0 to 10 scale) (corn; [2]) | Corn plant response rating (corn; [3]) | Plant response rating, Corn (corn; [4]) | Corn plant response rating (corn; [5]) | Corn plant response rating (corn; [6]) | Plant response rating (0 to 10; 0 is no effect, 10 is complete control), Corn (corn; Rate 250 g/ha, Postemergence) | Corn plant response rating (corn; [7]) | Crabgrass plant response rating (crabgrass; [1]) | Crabgrass plant response rating (0 to 10 scale) (crabgrass; [2]) | Crabgrass plant response rating (crabgrass; [3]) | Plant response rating, Crabgrass (crabgrass; [4]) | Crabgrass plant response rating (crabgrass; [5]) | Crabgrass plant response rating (crabgrass; [6]) | Plant response rating (0 to 10; 0 is no effect, 10 is complete control), Crabgrass (crabgrass; Rate 250 g/ha, Postemergence) | Crabgrass plant response rating (crabgrass; [7]) | Giant foxtail plant response rating (giant foxtail; [1]) | Giant foxtail plant response rating (0 to 10 scale) (giant foxtail; [2]) | Giant foxtail plant response rating (giant foxtail; [3]) | Giant foxtail plant response rating (giant foxtail; [5]) | Giant foxtail plant response rating (giant foxtail; [6]) | Plant response rating (0 to 10; 0 is no effect, 10 is complete control), Giant foxtail (giant foxtail; Rate 250 g/ha, Postemergence) | Giant foxtail plant response rating (giant foxtail; [7]) | Morningglory plant response rating (morningglory; [1]) | Morningglory plant response rating (0 to 10 scale) (morningglory; [2]) | Morningglory plant response rating (morningglory; [3]) | Plant response rating, Morningglory (morningglory; [4]) | Morningglory plant response rating (morningglory; [5]) | Morningglory plant response rating (morningglory; [6]) | Redroot pigweed plant response rating (pigweed; [1]) | Redroot pigweed plant response rating (0 to 10 scale) (pigweed; [2]) | Redroot pigweed plant response rating (pigweed; [3]) | Plant response rating, Redroot pigweed (pigweed; [4]) | Redroot pigweed plant response rating (pigweed; [5]) | Redroot pigweed plant response rating (pigweed; [6]) | Plant response rating (0 to 10; 0 is no effect, 10 is complete control), Redroot pigweed (pigweed; Rate 250 g/ha, Postemergence) | Redroot pigweed plant response rating (pigweed; [7]) | Rape plant response rating (rape; [1]) | Rape plant response rating (0 to 10 scale) (rape; [2]) | Rape plant response rating (rape; [3]) | Plant response rating, Rape (rape; [4]) | Rape plant response rating (rape; [5]) | Rape plant response rating (rape; [6]) | Plant response rating (0 to 10; 0 is no effect, 10 is complete control), Rape (rape; Rate 250 g/ha, Postemergence) | Rape plant response rating (rape; [7]) | Sugarbeets plant response rating (sugar beet; [1]) | Sugarbeets plant response rating (0 to 10 scale) (sugar beet; [2]) | Sugarbeets plant response rating (sugar beet; [3]) | Plant response rating, Sugarbeets (sugar beet; [4]) | Sugarbeets plant response rating (sugar beet; [5]) | Sugarbeets plant response rating (sugar beet; [6]) | Plant response rating (0 to 10; 0 is no effect, 10 is complete control), Sugarbeets (sugar beet; Rate 250 g/ha, Postemergence) | Sugarbeets plant response rating (sugar beet; [7]) | Velvetleaf plant response rating (velvetleaf; [1]) | Velvetleaf plant response rating (velvetleaf; [3]) | Plant response rating, Velvetleaf (velvetleaf; [4]) | Velvetleaf plant response rating (velvetleaf; [5]) | Velvetleaf plant response rating (velvetleaf; [6]) | Plant response rating (0 to 10; 0 is no effect, 10 is complete control), Velvetleaf (velvetleaf; Rate 250 g/ha, Postemergence) | Wheat plant response rating (wheat; [1]) | Wheat plant response rating (wheat; [3]) | Plant response rating, Wheat (wheat; [4]) | Wheat plant response rating (wheat; [5]) | Wheat plant response rating (wheat; [6]) | Plant response rating (0 to 10; 0 is no effect, 10 is complete control), Wheat (wheat; Rate 250 g/ha, Postemergence) | Nutsedge plant response rating (purple nutsedge; [1]) | Nutsedge plant response rating (0 to 10 scale) (purple nutsedge; [2]) | Nutsedge plant response rating (purple nutsedge; [3]) | Plant response rating, Nutsedge (purple nutsedge; [4]) | Nutsedge plant response rating (purple nutsedge; [5]) | Nutsedge plant response rating (purple nutsedge; [6]) | Plant response rating (0 to 10; 0 is no effect, 10 is complete control), Nutsedge (purple nutsedge; Rate 250 g/ha, Postemergence) | Nutsedge plant response rating (purple nutsedge; [7]) | Rice plant response rating (rice; [8]) | Rice plant response rating (rice; [9]) | Rice plant response rating (rice; [10]) | Plant response rating, Rice (rice; [11]) | S. Flatsedge plant response rating (smallflower flatsedge; [8]) | S. Flatsedge plant response rating (smallflower flatsedge; [9]) | S. Flatsedge plant response rating (smallflower flatsedge; [10]) | S. Flatsedge plant response rating (smallflower flatsedge; Rate 500 g/ha, Pre-emergence, flood test species, scale 0 to 10 (0 no effect, 10 complete control)) | Ducksalad plant response rating (duck salad; [8]) | Ducksalad plant response rating (duck salad; [9]) | Ducksalad plant response rating (duck salad; [10]) | Plant response rating, Ducksalad (duck salad; [11])
2: Plant response rating (0 to 10; 0 is no effect, 10 is complete control), Morningglory (morningglory; Rate 250 g/ha, Postemergence)

From patent US6737383B1, “Herbicidal oxadiazolidines” (priority 1999, dated 2004)
